The record followed here is US20240366612A1, “COMPOUNDS AND METHODS FOR MODULATING NUCLEIC ACID SPLICING” (REMIX THERAPEUTICS INC., priority 2021, published 2024).

Where a name gives a salt, the structure may show the parent alone.

The term IC50 denotes the concentration that inhibits the measured activity by half.

The subject of experiment [1] is MYB CJ mRNA. As to the kind of experiment: Gene panel canonical junction qPCR assay, MYB. It is filed as cell-based. As to conditions: Homo sapiens, larger gene panel, read-out: MYB IC50 (decrease in CJ mRNA levels). Here is the method:
Compounds described herein were used to modulate RNA transcript abundance in cells. The expression of a target mRNA was measured by detecting the formation of an exon-exon junction in the canonical transcript (CJ). A compound mediated exon-inclusion event was detected by observing an increase in formation of a new junction with an alternative exon (AJ). Real-time qPCR assays were used to detect these splicing switches and interrogate the potency of various compounds towards different target genes. A high-throughput real time quantitative PCR (RT-qPCR) assay was developed to measure these two isoforms of the mRNA (CJ and AJ) for exemplary genes, such as HTT, SMN2, and MYB, together with a control housekeeping gene, GAPDH or GUSB or PPIA, used for normalization. Briefly, the A673 or K562 cell line was treated with various compounds described herein (e.g., compounds of Formula (I)). After treatment, the levels of the HTT, MYB, or SMN2 mRNA targets were determined from each sample of cell lysate by cDNA synthesis followed by qPCR.
The A673 cell line was cultured in DMEM with 10% FBS. Cells were diluted with full growth media and plated in a 96-well plate (15,000 cells in 100 ul media per well). The plate was incubated at 37° C. with 5% CO2 for 24 hours to allow cells to adhere. An 11-point 3-fold serial dilution of the compounds was made in DMSO then diluted in media in an intermediate plate. Compounds were transferred from the intermediate plate to the cell plate with the top dose at a final concentration of 10 uM in the well. Final DMSO concentration was kept at or below 0.25%. The cell plate was returned to the incubator at 37° C. with 5% CO2 for an additional 24 hours.
The K562 cell line was cultured in IMDM with 10% FBS. For K562, cells were diluted with full growth media and plated in either a 96-well plate (50,000 cells in 50 uL media per well) or a 384-well plate (8,000-40,000 cells in 45 uL media per well). An 11-point 3-fold serial dilution of the compounds were made in DMSO then diluted in media in an intermediate plate. Compound was transferred from the intermediate plate to the cell plate with the top dose at a final concentration of 10 uM in the well. Final DMSO concentration was kept at or below 0.25%. Final volume was 100 uL for 96-well plate and 50 uL for 384-well plate. The cell plate was then placed in an incubator at 37° C. with 5% CO2 for 24 hours.
The data analysis was performed by first determining the ΔCt vs the housekeeper gene. This ΔCt was then normalized against the DMSO control (ΔΔCt) and converted to RQ (relative quantification) using the 2^(−ΔΔCt) equation. The RQ were then converted to a percentage response by arbitrarily setting an assay window of 3.5 and 4.0 ΔCt for HTT-CJ and MYB-CJ respectively and an assay window of 9 and 3 ΔCt for HTT-AJ and MYB-AJ in 96 well format (50,000 K562 cells/well and 15,000 A673 cells per well) and an assay window of 3 and 4 ΔCt for HTT-CJ and MYB-CJ respectively and an assay window of 5 and 3 ΔCt for HTT-AJ and MYB-AJ respectively in 384 well format (8,000 K562 cells/well example). […] The percentage response was then fitted to the 4 parametric logistic equation to evaluate the concentration dependence of compound treatment. The increase in AJ mRNA is reported as AC50 (compound concentration having […] in AJ increase) while the decrease in CJ mRNA levels is reported as IC50 (compound concentration having 50% response in CJ decrease).
Additional studies were carried out for a larger panel of genes using the protocol provided above. The junction between flanking upstream and downstream exons was used to design canonical junction qPCR assays. At least one of the forward primer, reverse primer or the CY5-labeled 5′ nuclease probe (with 3′ quencher such as ZEN/Iowa Black FQ) was designed to overlap with the exon junction to capture the CJ mRNA transcript. […]
A general note: In qPCR the cycle at which signal appears reflects the starting amount.

Experiment [2] relates to HiBiT-tagged MYB protein in K562 cells. The experiment is described as follows: HiBiT protein abundance assay, MYB. Format: cell-based, human. As to conditions: HiBiT-modified K562 cells, 24 hours, luminescence. Here is the method: (§1) Compounds described herein were used to screen for effects on quantitative protein abundance using a HiBit assay system (Promega). Quantitative protein abundance was determined by measuring the protein levels of HiBit-tagged protein targets expressed in cell culture via luminescence using the Nano-Glo HiBiT Lytic Detection System, which uses a split complementation assay format to reconstitute NanoBiT enzyme to generate a luminescent signal. A protein abundance assay was developed such that endogenous protein targets could be modified with the HiBiT peptide tag and their abundance could be assessed after compound treatment. Briefly, K562 cell lines containing a HiBiT-modification were treated with various compounds described herein (e.g., compounds of Formulas (I), (II), or (III)). After treatment for 24 hours, the protein abundance of a specific target was determined by measuring luminescence.
(§2) • Promega Nano-Glo HiBiT Lytic Detection System (cat #N3030) • Corning 384-well TC-treated microplates (cat #3570) • Synthego Engineered Cells Knock-In Clones
(§3) Cells were maintained in IMDM with 10% FBS. Before the assay, cells were diluted with […] growth media (IMDM+1% FBS media) and were seeded in a 384-well plate at a density of 10000 cells/well (for each cell line listed in Table 5). Each compound was prepared as a 10-point 3-fold serial dilution in DMSO with the top dose at a final concentration of 10 μM in the well. Unmodified K562 cells were added at the previously specified density with DMSO to serve as an assay baseline and positive control (PC) and DMSO only with the respective modified cell lines was added to the negative control (NC) columns. Final DMSO concentration was kept at or below 0.25%. Treated cell plates were placed in an incubator at 37° C. with 5% CO2 for 24 hours. After 24 hours, 25 μL of Complete HiBit Lytic reagent was added to each well at room temperature (e.g. one plate requiring 10 mL Lytic Buffer, 100 μL LgBiT Protein, 200 μL Lytic Substrate), shaken for 5 minutes at 600 RPM, then left to sit for 10 minutes for signal to stabilize before reading on a Spark Cyto plate reader (Tecan) with a 500 ms measurement time.
(§4) To determine compound effects on protein abundance of each target in Table 5, the percent response for each respective cell line was calculated at each compound concentration as follows:
(§5) For the normalized response at each concentration, a four-parameter logistical regression was fit to the data and the response was interpolated at the 50% value to determine a concentration for protein abundance at 50% (IC50) the untreated control.

Experiment [3] relates to HiBiT-tagged Target C protein in K562 cells. The experiment is described as follows: HiBiT protein abundance assay, Target C. The following applies: HiBiT-modified K562 cells, 24 hours, luminescence. It is filed as cell-based, human. Here is the method: as §1, §2, §3, §4, §5
Background: With HiBiT, luminescence reflects the tagged protein that the partner subunit can reach.

The subject of experiment [4] is HiBiT-tagged HTT protein in K562 cells. The experiment is described as follows: HiBiT protein abundance assay, HTT. Format: cell-based, human. As to conditions: HiBiT-modified K562 cells, 24 hours, luminescence. The procedure:
as §1, §2, §3, §4, §5

Take `Cc1cn2cc(-c3cc4ncn([C@H]5CCNC[C@@H]5F)c(=O)c4s3)cc(F)c2n1` (relative stereo) [Compound 272, trans-6-{8-fluoro-2-methylimidazo[1,2-a]pyridin-6-yl}-3-[3-fluoropiperidin-4-yl]thieno[3,2-d]pyrimidin-4-one]: the IC50 in experiment [1], in experiment [2], in experiment [3] and in experiment [4] was 1000 to 10000 nM in each case.
`Cc1cn2cc(-c3cc4ncn([C@H]5CCNC[C@H]5F)c(=O)c4s3)cc(F)c2n1` (relative stereo) [Compound 273, cis-6-{8-fluoro-2-methylimidazo[1,2-a]pyridin-6-yl}-3-[3-fluoropiperidin-4-yl]thieno[3,2-d]pyrimidin-4-one]: the IC50 in experiment [1] was in the range of 100 to 1000 nM; in experiment [2], 1000 to 10000 nM; in experiment [3], 1000 to 10000 nM; in experiment [4], 1000 to 10000 nM.
For `Cc1cn2cc(-c3cc4ncn([C@H]5CCN[C@H](C)C5)c(=O)c4s3)cc(F)c2n1` (relative stereo) [Compound 277, 6-{8-fluoro-2-methylimidazo[1,2-a]pyridin-6-yl}-3-[(trans)-2-methylpiperidin-4-yl]thieno[3,2-d]pyrimidin-4-one], the IC50 in experiment [1], in experiment [2], in experiment [3] and in experiment [4] was 100 to 1000 nM in each case.
With `Cc1cn2cc(-c3cc4ncn([C@H]5CCN[C@@H](C)C5)c(=O)c4s3)cc(F)c2n1` (relative stereo) [Compound 278, 6-{8-fluoro-2-methylimidazo[1,2-a]pyridin-6-yl}-3-[(cis)-2-methylpiperidin-4-yl]thieno[3,2-d]pyrimidin-4-one hydrochloride], the half-maximal inhibitory concentration (IC50) in experiment [1], in experiment [2], in experiment [3] and in experiment [4] was 100 to 1000 nM each time.
Consider `Cc1cc(-c2cc(=O)n3cc(N4CCN(C)CC4)sc3n2)cc2cn(C)nc12` [Compound 109, 7-(2,7-dimethyl-2H-indazol-5-yl)-2-(4-methylpiperazin-1-yl)-5H-thiazolo[3,2-a]pyrimidin-5-one], for which the IC50 in experiment [1], in experiment [2], in experiment [3] and in experiment [4] was over 10000 nM throughout.
Regarding `Cc1cc(-c2cc(=O)n3nc(N4CCN(C)CC4)sc3n2)cc2cn(C)nc12` [Compound 157, 7-(2,7-dimethyl-2H-indazol-5-yl)-2-(4-methylpiperazin-1-yl)-5H-[1,3,4]thiadiazolo[3,2-a]pyrimidin-5-one], the half-maximal inhibitory concentration (IC50) in experiment [1], in experiment [2], in experiment [3] and in experiment [4] was over 10000 nM throughout.
As to `Cc1cn2cc(-c3cc(=O)n4nc(N5CCN(C)CC5)sc4n3)cc(F)c2n1` [Compound 159, 7-(8-fluoro-2-methylimidazo[1,2-a]pyridin-6-yl)-2-(4-methylpiperazin-1-yl)-5H-[1,3,4]thiadiazolo[3,2-a]pyrimidin-5-one], the IC50 in experiment [1], in experiment [2], in experiment [3] and in experiment [4] was 1000 to 10000 nM each time.
As to `Cc1cc(-c2nn3c(=O)cc(N4CCNCC4)nc3s2)cc2cn(C)nc12` [Compound 206, 2-(2,7-dimethyl-2H-indazol-5-yl)-7-(piperazin-1-yl)-5H-[1,3,4]thiadiazolo[3,2-a]pyrimidin-5-one], the IC50 in experiment [1], in experiment [2], in experiment [3] and in experiment [4] was 1000 to 10000 nM in each case.
In the case of `Cc1cn2cc(-c3cc(=O)n4cc(N5CCNC6(CC6)C5)sc4n3)cc(F)c2n1` [Compound 207, 7-(8-fluoro-2-methylimidazo[1,2-a]pyridin-6-yl)-2-(4,7-diazaspiro[2.5]octan-7-yl)-5H-thiazolo[3,2-a]pyrimidin-5-one], the IC50 in experiment [1] is 1000 to 10000 nM; in experiment [2], over 10000 nM; in experiment [3], over 10000 nM; in experiment [4] it was over 10000 nM.
For the compound `Cc1cn2cc(-c3cn4c(=O)cc(N5CCNC6(CC6)C5)nc4s3)cc(F)c2n1` [Compound 208, 2-(8-fluoro-2-methylimidazo[1,2-a]pyridin-6-yl)-7-(4,7-diazaspiro[2.5]octan-7-yl)-5H-thiazolo[3,2-a]pyrimidin-5-one], the IC50 in experiment [1], in experiment [2], in experiment [3] and in experiment [4] was 1000 to 10000 nM throughout.
`Cc1cn2cc(-c3cc(=O)n4nc(N5CCNC6(CC6)C5)sc4n3)cc(F)c2n1` [Compound 209, 7-(8-fluoro-2-methylimidazo[1,2-a]pyridin-6-yl)-2-(4,7-diazaspiro[2.5]octan-7-yl)-5H-[1,3,4]thiadiazolo[3,2-a]pyrimidin-5-one]: the IC50 in experiment [1], in experiment [2], in experiment [3] and in experiment [4] was 1000 to 10000 nM throughout.
Turning to `Cc1cc(-c2nn3c(=O)cc(N4CCN(C)CC4)nc3s2)cc2cn(C)nc12` [Compound 210, 2-(2,7-dimethyl-2H-indazol-5-yl)-7-(4-methylpiperazin-1-yl)-5H-[1,3,4]thiadiazolo[3,2-a]pyrimidin-5-one], the IC50 in experiment [1], in experiment [2], in experiment [3] and in experiment [4] was 1000 to 10000 nM throughout.
Regarding `Cc1cn2nc(-c3cc(=O)n4cc(N5CCNC6(CC6)C5)sc4n3)cc(C)c2n1` [Compound 211, 7-(2,8-dimethylimidazo[1,2-b]pyridazin-6-yl)-2-(4,7-diazaspiro[2.5]octan-7-yl)-5H-thiazolo[3,2-a]pyrimidin-5-one], the IC50 in experiment [1], in experiment [2], in experiment [3] and in experiment [4] was 1000 to 10000 nM in each case.
